Results reported in patent US20250369124A1, “IMIDAZOLINE-SUGAR CONJUGATE COMPOSITIONS AND METHODS FOR INHIBITING CORROSION” (Ecolab USA Inc., priority 2024, published 2025).
“And” between values parts separate entries of the source, which are not always exact repeats. Equal values may be shown once. “Also recorded” adds a separate entry of the source.

Legend:
[1] = Wheel box test (NACE publication ID182), corrosion of carbon steel coupons in CO2-saturated brine/oil; settings: for corrosion inhibitor performance (in words): wheel box test
From the text: To determine the efficacy of the compositions as corrosion inhibitors, a wheel box test was used. It is a testing methodology from NACE publication ID182. The method is used to assess the degree of protection afforded to a metal surface that is in contact with water laden with carbon dioxide (C02). The wheel box test is a test that is often used in the field for comparative corrosion inhibitor performance tests. The standard test conditions used in the performance test are in Table 1.
A continuous wheel box test procedure was used to compare the performance of the corrosion inhibitor formulations of the invention in mitigating the corrosion of carbon steel in solutions saturated with carbon dioxide. Into a set of bottles containing the desired brine and oil mixtures, Table 1, clean and pre-weighed coupons were immersed. The solution was purged with carbon dioxide, after which the solutions were dosed with the various concentrations of the formulations. After purging the headspace with carbon dioxide, the bottles were immediately capped to prevent aerial exposure.
Blanks, comprising bottles of untreated mixtures, were used to determine the baseline corrosion rate under the test conditions. The bottles were placed on a rotating wheel under incubation at 80° C. for a period of 24 hours. Following the completion of the incubation, the bottles were retrieved and left to cooled to room temperature. The coupons were removed from the test solutions, cleaned, dried, sandblasted and re-weighed. By comparing the mass loss of the coupons immersed in treated solutions versus the mass loss for coupons placed in untreated solutions, the corrosion rate and protection efficiency were calculated.

[2] = Physical stability / water solubility of the inhibitor formulation (observation); assay type: physicochemical; settings: for physical stability of the formulation: 418.4 mM solution in water
[3] = 5 ppm of Corrosion Inhibitor, low dosage comparison, method of Example 4
[4] = 10 ppm of Corrosion Inhibitor, low dosage comparison, method of Example 4
[5] = 25 ppm of Corrosion Inhibitor, low dosage comparison, method of Example 4
[6] = 50 ppm of Corrosion Inhibitor, low dosage comparison, method of Example 4
[7] = 5000 ppm inhibitor, 80° C., 24 hours, CO2 saturated, 80% ASTM Seawater brine / 20% LVT-200
[8] = 20000 ppm inhibitor, 80° C., 24 hours, CO2 saturated, 80% ASTM Seawater brine / 20% LVT-200
[9] = 50000 ppm inhibitor, 80° C., 24 hours, CO2 saturated, 80% ASTM Seawater brine / 20% LVT-200

Row | physical stability of the formulation [2] | Structure (SMILES) | % Protection [1, 3] [%] | % Protection [1, 4] [%] | % Protection [1, 5] [%] | % Protection [1, 6] [%] | % Protection [1, 7] [%] | % Protection [1, 8] [%] | % Protection [1, 9] [%] | corrosion inhibitor performance (in words) [1] | other results
1 | physically unstable | CCCCCCCC/C=C\CCCCCCCC1=NCCN1CCN [Comparative Formulation, Acetate, reference compound] | 14 | 24 | 42 | 55 | 89 | 89 | 90 | robust even at low treatment doses | % Protection ([1]; 500 ppm inhibitor, 80° C., 24 hours, CO2 saturated, 80% ASTM Seawater brine / 20% LVT-200, Acetate): 88% and 89%; % Protection ([1]; 1000 ppm inhibitor, 80° C., 24 hours, CO2 saturated, 80% ASTM Seawater brine / 20% LVT-200, Acetate): 89% and 90%; % Protection ([1]; 2000 ppm inhibitor, 80° C., 24 hours, CO2 saturated, 80% ASTM Seawater brine / 20% LVT-200, Acetate): 90% and 89%; % Protection ([1]; 10000 ppm inhibitor, 80° C., 24 hours, CO2 saturated, 80% ASTM Seawater brine / 20% LVT-200, Acetate): 89% and 90%; average protection efficiency ([1]; average of Table 3 (500-50000 ppm)): 89%
2 |  | CC(=O)O.CCCCCCCC/C=C\CCCCCCCC1=NCCN1CCNC1OC(CO)C(O)C(O)C1O (stereo not shown) [Formula 1, (Z)-2-((2-(2-(heptadec-8-en-1-yl)-4,5-dihydro-1H-imidazol-1-yl)ethyl)amino)-6-(hydroxymethyl)tetrahydro-2H-pyran-3,4,5-triol acetate salt] | 22 | 32 | 54 | 63 | 94 |  |  | perform significantly better than the comparative sample even at low dosage rates | % Protection ([1]; 500 ppm inhibitor, 80° C., 24 hours, CO2 saturated, 80% ASTM Seawater brine / 20% LVT-200): 95%; % Protection ([1]; 1000 ppm inhibitor, 80° C., 24 hours, CO2 saturated, 80% ASTM Seawater brine / 20% LVT-200, listed as Formulation 1, acetate salt): 93% and 94%; % Protection ([1]; 2000 ppm inhibitor, 80° C., 24 hours, CO2 saturated, 80% ASTM Seawater brine / 20% LVT-200, listed as Formulation 1, acetate salt): 93% and 94%; % Protection ([1]; 10000 ppm inhibitor, 80° C., 24 hours, CO2 saturated, 80% ASTM Seawater brine / 20% LVT-200, listed as Formulation 1, acetate salt): 95% and 94%; % Protection ([1]; 20000 ppm inhibitor, 80° C., 24 hours, CO2 saturated, 80% ASTM Seawater brine / 20% LVT-200, listed as Formulation 1, acetate salt): 96% and 95%; % Protection ([1]; 50000 ppm inhibitor, 80° C., 24 hours, CO2 saturated, 80% ASTM Seawater brine / 20% LVT-200, listed as Formulation 1, acetate salt): 95% and 94%
3 | physically stable | CC(=O)[O-].CCCCCCCC/C=C\CCCCCCCC1=[N+](CC(O)c2ccccc2)CCN1CCNC1OC(CO)C(O)C(O)C1O (stereo not shown) [Formula 2, (Z)-2-(heptadec-8-en-1-yl)-3-(2-hydroxy-2-phenylethyl)-1-(2-((3,4,5-trihydroxy-6-(hydroxymethyl)tetrahydro-2H-pyran-2-yl)amino)ethyl)-4,5-dihydro-1H-imidazol-3-ium acetate salt] | 28 | 36 | 57 | 73 |  | 94 | 94 |  | % Protection ([1]; 500 ppm inhibitor, 80° C., 24 hours, CO2 saturated, 80% ASTM Seawater brine / 20% LVT-200, listed as Formulation 2, acetate salt): 91% and 92%; % Protection ([1]; 1000 ppm inhibitor, 80° C., 24 hours, CO2 saturated, 80% ASTM Seawater brine / 20% LVT-200): 92%; % Protection ([1]; 2000 ppm inhibitor, 80° C., 24 hours, CO2 saturated, 80% ASTM Seawater brine / 20% LVT-200, listed as Formulation 2, acetate salt): 91% and 92%; % Protection ([1]; 5000 ppm inhibitor, 80° C., 24 hours, CO2 saturated, 80% ASTM Seawater brine / 20% LVT-200, listed as Formulation 2, acetate salt): 92% and 93%; % Protection ([1]; 10000 ppm inhibitor, 80° C., 24 hours, CO2 saturated, 80% ASTM Seawater brine / 20% LVT-200, listed as Formulation 2, acetate salt): 93% and 94%; corrosion inhibitor performance (in words) ([1]; acetate salt): greatly improved corrosion inhibitor performance even at low dosages; also recorded: highly effective; also recorded: perform significantly better than the comparative sample even at low dosage rates; solubility in water [2]: high solubility in water
